Laboratory results reported in paper PMC10962247 (Science translational medicine, 2024).

Molecular target: T1, Glycogen synthase 1 (GYS1) (Homo sapiens, UniProt P13807)
T1 sequence (P13807 1-737): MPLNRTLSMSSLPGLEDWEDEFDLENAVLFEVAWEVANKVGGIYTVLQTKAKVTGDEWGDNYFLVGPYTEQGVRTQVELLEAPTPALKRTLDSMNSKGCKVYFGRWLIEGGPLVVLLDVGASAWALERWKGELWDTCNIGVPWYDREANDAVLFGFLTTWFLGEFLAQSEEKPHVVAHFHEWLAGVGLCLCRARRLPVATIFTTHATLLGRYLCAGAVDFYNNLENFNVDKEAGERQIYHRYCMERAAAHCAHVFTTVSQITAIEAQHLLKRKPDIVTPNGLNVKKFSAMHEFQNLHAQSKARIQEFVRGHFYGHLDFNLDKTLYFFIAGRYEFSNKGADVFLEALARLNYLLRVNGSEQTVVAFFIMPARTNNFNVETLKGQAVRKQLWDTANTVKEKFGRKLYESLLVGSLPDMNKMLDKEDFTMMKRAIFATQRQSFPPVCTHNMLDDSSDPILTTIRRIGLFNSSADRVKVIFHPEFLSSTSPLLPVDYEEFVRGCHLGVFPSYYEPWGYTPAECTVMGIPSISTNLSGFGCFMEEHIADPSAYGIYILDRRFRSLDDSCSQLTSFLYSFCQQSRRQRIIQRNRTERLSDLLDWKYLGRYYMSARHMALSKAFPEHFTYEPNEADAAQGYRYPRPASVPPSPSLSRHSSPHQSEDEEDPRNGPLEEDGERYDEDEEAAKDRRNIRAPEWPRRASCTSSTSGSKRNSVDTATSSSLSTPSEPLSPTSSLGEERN
T1 sequence (P46976 2-350 partner): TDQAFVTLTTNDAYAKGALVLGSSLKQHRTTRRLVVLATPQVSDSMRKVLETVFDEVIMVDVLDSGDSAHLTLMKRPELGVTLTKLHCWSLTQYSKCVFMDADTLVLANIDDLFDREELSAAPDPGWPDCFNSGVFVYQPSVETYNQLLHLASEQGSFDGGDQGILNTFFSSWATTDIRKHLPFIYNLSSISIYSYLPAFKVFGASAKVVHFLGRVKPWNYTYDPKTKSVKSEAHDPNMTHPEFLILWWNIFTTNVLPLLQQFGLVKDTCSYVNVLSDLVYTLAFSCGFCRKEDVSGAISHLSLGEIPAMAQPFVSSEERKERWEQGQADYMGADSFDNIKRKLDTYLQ
Assay: PK/LDH coupled enzyme assay with recombinant GYS1 in the presence of G6P
Assay type: biochemical

CC(C)c1ccc([C@@H](NC(=O)[C@@H]2C[C@@H](F)CN2C(=O)Cc2cn[nH]n2)c2ccccc2)cc1 [MZ-101]
IC50: 41 nM
